Source: patent US8716528B2, “Aryloxy amine compounds and their use as sodium channel modulators” (Howard Florey Institute, priority 2007, dated 2014)
Where “and” joins values, the source holds several entries; their conditions need not be identical. Identical values can stand only once. Entries after “also recorded” stand apart in the source; their conditions may differ. Marks after values point to notes of the source that are not given here.

Experiments:
[1] = target: Sodium Channel Binding Site 2 in Rat Brain Membranes; details: 3H-batrachotoxinin 5 nM, 37° C. 60 minutes, read-out: IC50 (inhibition of specific binding of 3H-batrachotoxinin)
[2] = tested on: Male Hooded Wistar rats, spinal cord injury (SCI); assay: Reversible spinal cord injury model: horizontal ladder test; assay type: in vivo, rat; details: versus SCI+saline controls at the same time
Method: (§1) Male Hooded Wistar rats were anesthetized (2% isoflurane/98% oxygen), and laminectomy performed at spinal level T12. An inflatable balloon catheter was inserted rostral, underneath the vertebra, to T10 and inflated for 5 minutes, causing reversible paraplegia (Feldblum, et al., 2000). […] Rats had almost complete functional recovery by 15 d. Compound 1 (15 nmol/g and 60 nmol/g), mexiletine (60 nmol/g) and vehicle (5 ml/kg) were administered i.p, at 3 h after the injury and twice daily thereafter, until killed. Behavioural tests were conducted every 3 days. At 15 d post-injury, rats were anesthetized and transcardially perfused, to fix the spinal cords. Sections were cut and processed to examine the size of the cyst and modulatory effects of treatments or control on lesion formation.
Ladder test: In the horizontal ladder test, rats are placed onto a beam which is randomly missing rungs, this prevents rats from adapting and compensating for any deficits following SCI. […] The results are depicted in FIG. 4. […] Data is expressed as the percentage of foot misplacements made of the total number of steps taken, using a combined score for both hindlimbs. […] Each rat acted as its own control, and results compared with pre-injury scores (0 h after SCI). […]

[3] = tested on: Male Hooded Wistar rats, spinal cord injury (SCI); assay: Reversible spinal cord injury model: BBB open-field locomotor score; assay type: in vivo, rat; details: i.p. 3 h after injury and twice daily, 15 days; versus vehicle treated controls
Method: as §1
BBB scale: Effects of Compound 1 and mexiletine treatment on the time course of functional recovery, following SCI, assessed with the BBB open-field locomotor score. […] Each rat acted as its own control, and results after SCI compared with pre-injury scores (0 h after SCI). Data are mean±SEM. ANOVA followed by Bonferroni post-test: [F(24,273)=10.57, P<0.0001], *P<0.05, **P<0.01, ***P<0.001 Compound 1 (60 nmol/g) versus the SCI+saline controls at the same time; †P<0.05 Compound 1 (15 nmol/g) or mexiletine (60 nmol/g) versus SCI+saline controls at the same time.

[4] = tested on: Male Hooded Wistar rats, spinal cord injury (SCI); assay: Reversible spinal cord injury model: neuronal cell body counts by NeuN immunostaining; assay type: in vivo, rat; details: for loss of white matter and gray matter (rostro-caudal serial sections, neuronal cell body counts): after SCI, versus saline treatment
Method: as §1
(§2) Volume of damage: Effects of treatment were measured first from H & E stained sections. […] Data are mean±SEM of measurements from n=4 rats per treatment group. Secondly, the sparing of spinal cord tissue by Compound 1 and mexiletine treatment was assessed by more detailed histological staining techniques.

[5] = tested on: Male Sprague-Dawley rats, L5 nerve ligated and cut; assay: Rat L5 nerve cut model of neuropathic pain, Von Frey filament withdrawal threshold (allodynia); assay type: in vivo; details: for grams of force needed to withdraw left limb: left hind paw, nerve cut; for grams of force needed to withdraw left limb / grams of force needed to withdraw right limb: individual rats #17-#20; for effect on allodynia: left paw, 4 rats; for grams of force needed to withdraw right limb: right hind paw, nerve intact
Method: The following method is based on the method published by Chaplan et al, 1994. Male Sprague-Dawley rats from one litter were weaned when 19 days old and acclimatized for the next two days in the Animal House where the experiment was to be carried out. From days 21 to 25, rats were tested using a set of Von Frey monofilaments to test the mechanical withdrawal threshold of the hindpaws. The monofilaments were applied in increasing force until the rat withdrew the hind paw being tested. […] Rats were anaesthetized with a halothane/oxygen (5:95) gas mixture and a dorsal midline incision was made on the rat's lower back to expose the left lumbar region either side of the hip. Bone was clipped away to expose the L4 and L5 nerves distal to their emergence from the intervertebral foramina. The L5 nerve was then isolated using a glass hook, ligated and cut on the peripheral side of the ligation. The incision was then closed with suture threads and the anaesthetic gas discontinued. The next day rats underwent testing with the graded Von Frey filaments to the hind paws to determine if allodynia was present in the left paw as compared to the right hind paw. Testing was repeated on these rats until they were 28 days old. […] Rats were then tested with graded Von Frey filaments at 45 minutes and 90 minutes after injection in order to determine if allodynia had been blocked.

[6] = tested on: Male Hooded Wistar rats, spinal cord injury (SCI); assay: Reversible spinal cord injury model: volume of damage from H & E stained sections; assay type: in vivo, rat; details: equivalent mole dose, compared to SCI+saline, n=4
Method: as §1, §2

[7] = tested on: Male Hooded Wistar rats, spinal cord injury (SCI); assay: Reversible spinal cord injury model: percentage of white and gray matter spared at the epicentre (H & E, Luxol Fast blue, cresyl violet); assay type: in vivo, rat
Method: as §1, §2

[8] = tested on: Male Hooded Wistar rats, spinal cord injury (SCI); assay: Reversible spinal cord injury model: ledged beam task; assay type: in vivo, rat; details: for use of the support ledge, ledged beam task: after SCI, versus saline-treated controls
Method: as §1
Ledged beam: Effects of Compound 1 and mexiletine, and SCI+saline controls on recovery of function following spinal cord compression injury as assessed by the number of steps using the support ledge on the ledged beam task. The results are depicted in FIG. 5. Sham-SCI rats walked the length of the ledged beam with approximately 10% of steps made on the supporting ledge. […] Data is expressed as ledge use/errors made as a percentage of total steps taken with both hindlimbs after SCI. Each rat acted as its own control, and results compared with pre-injury scores (0 h after SCI). ANOVA followed by Bonferroni post-test: [F(24,273)=5.12, P<0.0001], *P<0.05, **P<0.01, ***P<0.001 Compound 1 (60 nmol/g) versus the SCI+saline controls at the same time; †P<0.05 Compound 1 (15 nmol/g) versus SCI+saline controls at the same time. […] Data are mean±SEM. n=6-11 rats in each group.

[9] = +0.5 mm from epicentre, 60 nmol/g
[10] = +1 mm from epicentre, 60 nmol/g
[11] = +1.5 mm from epicentre, 60 nmol/g
[12] = +2 mm from epicentre, 60 nmol/g
[13] = +2.5 mm from epicentre, 60 nmol/g
[14] = −0.5 mm from epicentre, 60 nmol/g
[15] = −1 mm from epicentre, 60 nmol/g
[16] = −1.5 mm from epicentre, 60 nmol/g
[17] = −2 mm from epicentre, 60 nmol/g
[18] = −2.5 mm from epicentre, 60 nmol/g

Cc1cccc(C)c1OCCCNCc1ccc(N2N=CC(C)C2=O)cc1 (stereo not shown) [Comparative A, reference compound]
IC50 [1]: 11000 nM

Cc1cccc(C)c1OCC(C)NCc1cc(C(C)(C)C)c(O)c(C(C)(C)C)c1 (stereo not shown) [Compound 1]
number of hind-limb foot misplacements, horizontal ladder test [2]: decreased the number of hind-limb foot misplacements
rate of functional recovery following SCI, BBB open-field locomotor score [3]: significantly increased the rate of recovery
IC50 [1]: 134 nM
No. of motor neurons Per sq mm, Mean ([4]; 0.0 mm (epicentre), 15 nmol/g): 9* Per sq mm
No. of motor neurons Per sq mm, Mean ([4]; 0.0 mm (epicentre), 60 nmol/g): 15* Per sq mm
No. of motor neurons Per sq mm, Mean ([4]; +0.5 mm from epicentre, 15 nmol/g): 10* Per sq mm
No. of motor neurons Per sq mm, Mean [4, 9]: 16* Per sq mm
No. of motor neurons Per sq mm, Mean ([4]; +1 mm from epicentre, 15 nmol/g): 14* Per sq mm
No. of motor neurons Per sq mm, Mean [4, 10]: 22* Per sq mm
No. of motor neurons Per sq mm, Mean ([4]; +1.5 mm from epicentre, 15 nmol/g): 25* Per sq mm
No. of motor neurons Per sq mm, Mean [4, 11]: 29* Per sq mm
No. of motor neurons Per sq mm, Mean ([4]; +2 mm from epicentre, 15 nmol/g): 28 Per sq mm
No. of motor neurons Per sq mm, Mean [4, 12]: 28 Per sq mm
No. of motor neurons Per sq mm, Mean ([4]; +2.5 mm from epicentre, 15 nmol/g): 29 Per sq mm
No. of motor neurons Per sq mm, Mean [4, 13]: 30 Per sq mm
loss of white matter and gray matter (rostro-caudal serial sections, neuronal cell body counts) [4]: reduced loss of both white matter and gray matter; also recorded: more effective than Mexiletine
No. of motor neurons Per sq mm, Mean ([4]; −0.5 mm from epicentre, 15 nmol/g): 11* Per sq mm
No. of motor neurons Per sq mm, Mean [4, 14]: 17* Per sq mm
No. of motor neurons Per sq mm, Mean ([4]; −1 mm from epicentre, 15 nmol/g): 18* Per sq mm
No. of motor neurons Per sq mm, Mean [4, 15]: 23* Per sq mm
No. of motor neurons Per sq mm, Mean ([4]; −1.5 mm from epicentre, 15 nmol/g): 26 Per sq mm
No. of motor neurons Per sq mm, Mean [4, 16]: 26 Per sq mm
No. of motor neurons Per sq mm, Mean ([4]; −2 mm from epicentre, 15 nmol/g): 29 Per sq mm
No. of motor neurons Per sq mm, Mean [4, 17]: 30 Per sq mm
No. of motor neurons Per sq mm, Mean ([4]; −2.5 mm from epicentre, 15 nmol/g): 27 Per sq mm
No. of motor neurons Per sq mm, Mean [4, 18]: 30 Per sq mm
grams of force needed to withdraw left limb ([5]; 45 min post i.p. 70 nmol/g): 11.44 g and 17.8 g (3×)
grams of force needed to withdraw left limb ([5]; 90 min post i.p. 70 nmol/g): 3.7 g and 10.9 g and 17.8 g (2×)
effect on allodynia ([5]; 45 minutes after i.p. 70 nmol/g): allodynia had been completely eliminated in 3 of the rats
effect on allodynia ([5]; 90 minutes after i.p. 70 nmol/g): allodynia had still been eliminated in 2 rats
grams of force needed to withdraw right limb ([5]; 45 min post i.p. 70 nmol/g): 17.8 g
grams of force needed to withdraw right limb ([5]; 90 min post i.p. 70 nmol/g): 17.8 g
generalized anaesthesia (response of right hindpaw to filaments) ([5]; right hindpaw, 45 or 90 minutes after injection): did not cause a generalized anaesthesia
volume of damage (H & E stained sections) [6]: reduced damage compared to SCI+saline
GRAY MATTER spared, % MEAN ([7]; 15 nmol/g): 80* %
TOTAL TISSUE spared, % MEAN ([7]; 15 nmol/g): 74.3* %
WHITE MATTER spared, % MEAN ([7]; 15 nmol/g): 63.6* %
GRAY MATTER spared, % MEAN ([7]; 60 nmol/g): 88.9* %
TOTAL TISSUE spared, % MEAN ([7]; 60 nmol/g): 83.9* %
WHITE MATTER spared, % MEAN ([7]; 60 nmol/g): 81.1* %
use of the support ledge, ledged beam task [8]: significantly reduced

CC(C)(C)c1cc(CNCCCOc2c(Cl)cccc2Cl)cc(C(C)(C)C)c1O [Compound 2]
IC50 [1]: 105 nM

COc1cccc(OC)c1OCCCNCc1cc(C(C)(C)C)c(O)c(C(C)(C)C)c1 [Compound 3]
IC50 [1]: 107 nM

CC(C)c1cccc(C(C)C)c1OCCCNCc1cc(C(C)(C)C)c(O)c(C(C)(C)C)c1 [Compound 4]
IC50 [1]: 90 nM

CC(C)c1cncc(C(C)C)c1OCCCNCc1cc(C(C)(C)C)c(O)c(C(C)(C)C)c1 [Compound 5]
IC50 [1]: 380 nM

CC(C)(C)c1cc(CNCCCOc2ccccc2)cc(C(C)(C)C)c1O [Compound 6]
IC50 [1]: 236 nM

CC(C)(C)c1cc(CNCCCOc2ccncc2)cc(C(C)(C)C)c1O [Compound 7]
IC50 [1]: 870 nM

Cc1cccc(C)c1OCCCNCc1cc(C(C)(C)C)c(O)c(C(C)(C)C)c1 [Compound 8]
IC50 [1]: 179 nM

Cc1cccc(C)c1OCC(C)N (stereo not shown) [Mexiletine, mexiletine, reference compound]
number of hind-limb foot misplacements, horizontal ladder test [2]: decreased the number of hind-limb foot misplacements
rate of functional recovery following SCI, BBB open-field locomotor score [3]: significantly increased the rate of recovery
IC50 [1]: 11000 nM
No. of motor neurons Per sq mm, Mean ([4]; 0.0 mm (epicentre), 60 nmol/g): 7* Per sq mm
No. of motor neurons Per sq mm, Mean [4, 9]: 10* Per sq mm
No. of motor neurons Per sq mm, Mean [4, 10]: 17* Per sq mm
No. of motor neurons Per sq mm, Mean [4, 11]: 24* Per sq mm
No. of motor neurons Per sq mm, Mean [4, 12]: 30 Per sq mm
No. of motor neurons Per sq mm, Mean [4, 13]: 27 Per sq mm
loss of white matter and gray matter (rostro-caudal serial sections, neuronal cell body counts) [4]: reduced loss of both white matter and gray matter
No. of motor neurons Per sq mm, Mean [4, 14]: 11* Per sq mm
No. of motor neurons Per sq mm, Mean [4, 15]: 17* Per sq mm
No. of motor neurons Per sq mm, Mean [4, 16]: 26 Per sq mm
No. of motor neurons Per sq mm, Mean [4, 17]: 33 Per sq mm
No. of motor neurons Per sq mm, Mean [4, 18]: 31 Per sq mm
volume of damage (H & E stained sections) [6]: reduced damage compared to SCI+saline
GRAY MATTER spared, % MEAN ([7]; 60 nmol/g): 77.9* %
TOTAL TISSUE spared, % MEAN ([7]; 60 nmol/g): 70.5* %
WHITE MATTER spared, % MEAN ([7]; 60 nmol/g): 66.3* %
ledge use, statistical difference from SCI+saline ([8]; 60 nmol/g, Bonferroni post-test): no significant difference from SCI+saline at any time
use of the support ledge, ledged beam task [8]: significantly reduced
